Test results as given in patent publication US20240374557A1, “BETA ADRENERGIC RECEPTOR COMPOSITIONS AND METHODS OF USE THEREOF” (THE BOARD OF REGENTS OF THE UNIVERSITY OF TEXAS SYSTEM, priority 2021, published 2024).

Key:
[1] = system: Ad-Adrb1KO mice and littermate controls; assay: Acute CL-316243 injection: body weight, blood glucose, BAT mass and BAT histology; format: in vivo
Protocol: Physiological relevance of crosstalk between ADRB1 and ADRB3 in adipocytes was assessed. […] Four hours after CL-316243 injection, mice were sacrificed and BAT depots were dissected.
Treatment with CL 316, 243.
Histology. […] Samples were then dehydrated, embedded in paraffin, and cut into […] sections. Sections were stained with hematoxylin and eosin (H&E) to perform general histology. All pictures were taken at a magnification of 20× on a Zeiss Axioskop 2 microscope connected to a digital camera (AxioCam; Zeiss, Thornwood, NY). Only the sharpness, contrast, and brightness were adjusted.

[2] = system: Adrb1, Ppargc1a and Ucp1 mRNA expression in eWAT, iWAT and BAT; assay: Quantitative real-time PCR of adipose depots after CL-316243 injection; format: in vivo, mice; settings: CL-316243 0.1 mg/kg
Protocol: Quantitative real-time PCR. […] Total mRNA was isolated from eWAT, iWAT and interscapular BAT using the Aurum™ Total RNA Fatty and Fibrous Tissue Kit (Bio-Rad, 732-6830). RNA concentration was estimated from absorbance at 260 nm. cDNA synthesis was performed using the iScript Advanced cDNA Synthesis Kit (Bio-Rad, 172-5038). mRNA extraction and cDNA synthesis were performed following the manufacturer's instructions. cDNA was diluted in DNase-free water before quantification by real-time PCR. Relative quantification of gene expression was performed on diluted cDNA in duplicate samples using a CFX384 Touch™ real-time PCR (Bio-Rad). Fold differences in targeted mRNA expression were calculated using the 2-delta cycle threshold method and data were normalized to beta-microglobulin (B2m) expression. TaqMan gene expression assays for Adrb1 (Mm00431701_s1), B2m (Mm00437762_m1), Ppargc1a (Mm01208835_m1), and Ucp1 (Mm01244861_m1) were purchased from ThermoFisher Scientific.

[3] = system: ADRB3; settings: cited from earlier work
[4] = system: Ad-Adrb1KO mice and littermate controls; assay: Blood glucose over 60 minutes after CL-316243 dose range; settings: for reducing glycemia: 0.001 mg/kg
Protocol: Tail vein blood glucose levels were then monitored using a glucometer (Bayer's Contour Blood Glucose Monitoring System.
(§3) Treatment with CL 316, 243. Mice were fasted for 2 hours (0800-1000) and then given an injection of the ADRB3 agonist CL 316,243 (“CL”, 0.001-1 mg/kg) or vehicle (saline). In some cohorts, human recombinant insulin (Eli Lilly) or D-glucose (Sigma 49163-100ML) was co-administrated with CL.

[5] = system: Ad-Adrb1KO mice and littermate controls; assay: Co-administration of CL-316243 with insulin or glucose: blood glucose, plasma insulin, NEFA; settings: for increase in plasma insulin levels: CL-316243 0.1 mg/kg co-administered with glucose, 30 minutes after vs before
Protocol: as §3
Evaluation of insulin and NEFA levels. Blood from tail vein was collected before and 30 minutes after co-administration of CL with D-glucose into EDTA tubes. Plasma was isolated by centrifugation (4000 g×10 minutes at 4° C.). Plasma insulin (Mouse Ultrasensitive Insulin ELISA, ALPCO, 80-INSMSU-E01) and NEFA (FUJIFILM Wako Diagnostics-NEFA Reagent, 999-34691, 995-34791, 991-34891, 993-35191) levels were measured following manufacturer recommendations.

[6] = system: C57BL/6N mice on 42% high fat diet; assay: 4-week treatment of high fat diet fed mice: body weight, body composition, cholesterol, oral glucose tolerance; format: in vivo; settings: compared to placebo
Protocol: (§1) In brief, three cohorts of male C57BL/6N mice, including a total of 100 mice, were used in these studies. Five-week-old mice were placed on a 42% high fat diet for 4 weeks. The treatments were provided for 4 weeks, during which time mice were maintained on the 42% high fat diet.
(§2) Mirabegron, an ADRB3 agonist, was administered at an 8 mg/kg daily dose. Atenolol is an ADRB1 antagonist and was administered to the mice at, on average, 60 mg/kg per day. Mirabegron or its buffer (5% PEG 400; placebo) were administered to the mice daily by gavage for 4 weeks. Mice were also given ad libitum access to a water bottle or a water bottle containing atenolol. […] Oral glucose tolerance testing was performed on overnight fasted mice administered 5 μL 60% glucose solution per g BW using a gavage tube; blood glucose levels were determined with a glucometer using blood from tail nicks at times 0, 15, 30, 60 and 120 minutes. Blood pressure measurements were obtained using a CODA-HT8 High Throughput Noninvasive Blood Pressure system with 8 activated channels for use with mice and rats from Kent Scientific. Methods and statistical analysis were performed as described above.

[7] = system: C57BL/6N mice on 42% high fat diet; settings: 4 weeks, compared to placebo; mirabegron 8 mg/kg daily, atenolol 60 mg/kg per day
Protocol: as §1, §2

[8] = CL-316243 0.1 mg/kg, Ad-Adrb1KO mice
[9] = every adipose depot, independent of the genotype
[10] = 4 weeks, mirabegron 8 mg/kg daily gavage, atenolol 60 mg/kg per day in water

C[C@H](Cc1ccc2c(c1)OC(C(=O)[O-])(C(=O)[O-])O2)NC[C@H](O)c1cccc(Cl)c1.[Na+].[Na+] [CL-316243, 5-[(2R)-2-[[(2R)-2-(3-Chlorophenyl)-2-hydroxyethyl]amino]propyl]-1,3-benzodioxole-2,2-dicarboxylic acid disodium salt]
BAT mass [1, 8]: comparable to CL-316243-treated littermates
CL-316243-induced mobilization of intracellular triglycerides in BAT [1, 8]: markedly improved
lipid droplets in H&E-stained BAT ([1]; CL-316243 0.1 mg/kg, mice lacking Adrb1 in adipocytes): near-complete depletion
weight of the mice ([1]; acute CL-316243 0.1 mg/kg, Ad-Adrb1KO mice and littermate controls): did not significantly change
efficiency to reduce blood glucose levels (treatment x genotype) ([1]; acute CL-316243 0.1 mg/kg, Ad-Adrb1KO vs littermate controls): significant interaction
Adrb1 mRNA expression (significantly reduced or not) ([2]; BAT, littermate controls): not
Adrb1 mRNA expression ([2]; eWAT, littermate controls): significantly reduced
Ppargc1a mRNA expression [2, 9]: increase
Ucp1 mRNA expression [2, 9]: increase
Adrb1 mRNA expression (significantly reduced or not) ([2]; iWAT, littermate controls): not in iWAT
selectivity for ADRB3 over ADRB1 and ADRB2 [3]: over 10000 fold
EC50 ([3]; read-out: EC50 (ADRB3 agonist)): 3 nM
reducing glycemia ([4]; Ad-Adrb1KO mice): still effective
reducing glycemia ([4]; littermate controls): not littermate controls
blood glucose ([4]; both genotypes, even at low dose of 0.01 mg/kg, 60-minute period): glucose lowering effect
increase in plasma insulin levels ([5]; Ad-Adrb1KO mice): 43 fold
increase in plasma insulin levels ([5]; littermate controls): 12 fold
glucose clearance ([5]; CL-316243 0.1 mg/kg co-administrated with glucose, Ad-Adrb1KO mice): drastically improved
insulin sensitivity ([5]; CL-316243 0.1 mg/kg in combination with insulin, Ad-Adrb1KO mice compared to control littermates): slight but significant improvement
plasma NEFA levels between Ad-Adrb1KO mice and littermate controls ([5]; CL-316243 co-administrated with glucose): no difference

Nc1nc(CC(=O)Nc2ccc(CCNC[C@H](O)c3ccccc3)cc2)cs1 [mirabegron]
LDL cholesterol [6, 10]: significant decreases
epididymal fat mass [6, 10]: significant decreases
total body weight [6, 10]: significant decreases
total cholesterol [6, 10]: significant decreases
total fat mass [6, 10]: significant decreases
glucose tolerance (blood glucose area under the curve) ([6]; oral glucose tolerance test after 4 weeks): significant improvements
diastolic blood pressure (DBP) [7]: elevated
mean arterial blood pressure (MBP) [7]: elevated
systolic blood pressure (SBP) [7]: elevated
